Series [1] concerns Microphthalmia Transcription Factor (MITF). Kind of series: TRPM1-luciferase reporter screen for MITF antagonists in Skme15 melanoma cells. The series is classed as cell-based, human. The conditions noted are these: screen, suppression of TRPM1-luciferase activity, Skme15 cells. An excerpt:
In order to carry out a successful MITF antagonist screen, the inventors utilized a TRPM1-luciferase reporter. […] Therefore, the TRPM1-luciferase reporter stably integrated into melanoma cells is effective for the screening assay. The use of melanoma cells, while less perfectly relevant than primary human melanocytes, afforded the advantages of speed and reproducibility for the screen.
In order to engineer a screen which broadly suppress MITF activity either by suppression of MITF expression or by inhibition of MITF activity, the inventors utilized a luciferase reporter containing the promoter of a strong direct transcriptional target of MITF, i.e., TRPM1 gene, the inventors have identified the active ingredients having the ability of inhibiting the expression or activation of Microphthalmia Transcription Factor (MITF) for medical or esthetic benefit. The inventors have previously identified the TRPM1 gene (also called “Melastatin”) as a direct target of MITF, which contains numerous MITF binding sites, and which directly responds in potent fashion to MITF overexpression (Miller A J, Du J, Rowan S, Hershey C L, Widlund H R, Fisher D E: Transcriptional regulation of the melanoma prognostic marker melastatin (TRPM1) by MITF in melanocytes and melanoma, Cancer Res 2004, 64:509-516). TRPM1 expression also correlates closely to MITF expression within human melanoma cell lines, as well as in clinical pigmented lesions (nevi and melanomas).
The TRPM1 promoter was ligated to the luciferase gene and inserted into a retroviral vector as well as a lentiviral vector. The lentiviral vector was used to infect primary human melanocytes, which then was subjected to a primary screen using the Broad Chemical Genetics core screening facility, and its natural products/extracts libraries. As backup, the retroviral vector was used to stably integrate into the genome of melanoma cells, which can be used for the identical small molecule screen. Screen optimization was carried out using forskolin and MSH as positive control small molecules (which upregulate cAMP and MITF expression (D'Orazio J A, Nobuhisa T, Cui R, Arya M, Spry M, Wakamatsu K, Igras V, Kunisada T, Granter S R, Nishimura E K, Ito S, Fisher D E: Topical drug rescue strategy and skin protection based on the role of Mc1r in UV-induced tanning, Nature 2006, 443:340-344)). Small molecules which suppress MSH induced TRPM1-luciferase without altering cell numbers or viability, represent initial “hits” in this screen. Negative control includes a constitutive luciferase vector within the same cells (eg driven by a constitutive promoter such as thymidine kinase promoter), to control for nonspecific inhibitors of basal transcriptional machinery-something which would otherwise be assessed in detail during secondary/tertiary analyses of candidate hits.
The human melanoma cell line Skme15 was utilized due to the advantageous growth properties as well as the inventors' prior experience that Skme15 expresses a typical level of MITF protein. […] Therefore, an integrated TRPM1-luciferase reporter was generated, and the subsequent cells were cloned twice (serially) to assure purity of the reporter cell population. Cells were maintained in drug selection to assure maintenance of the luciferase reporter (when drug was omitted, eventual loss of the luciferase signal was observed). Following re-cloning, distinct isolates were selected for further use on the basis of clonogenic growth on 384 well plates, as required for the small molecule screen. A positive control for suppression of TRPM1-luciferase signal utilized: a lentivirus encoding shRNA against MITF. […] The day-to-day variability in plating efficiency was analyzed, and found very high reproducibility in the line which was selected for further use in the screen.
The screen was carried out with a library from the Broad Institute comprising a mixture of natural products, known bioactives, and additional compounds (a total of about 13,000 compounds). […]
(Reporter assays use an easily measured gene product as a stand-in for the process of interest.)

Another series relates to Skme15. Kind of series: Toxicity with fluorescence viability probe (CellTiter-Fluo Cell Viability Assay). The series is classed as cell-based, human. The conditions noted are these: composite of the variation between drug-treated and control divided by the standard error. On the procedure:
Although the shape of the dose-response can vary among hits, the inventors chose to include all candidates which produce dose-dependent effects. The fourth criterion which was determined is the IC50 (described formally as qAC50) which represents the half-maximal suppression dose. Most of the candidate hits resided in the high nanomolar to low micromolar range by this criterion (all of these validation data are listed in Table 1). The fifth criterion was maximal suppression (at any dose), which represented the magnitude of suppression which was attainable regardless of the dose required to achieve it. […] The sixth criterion to be determined is the Log P partition coefficient, which is a predictor of lipophilicity. For this, the inventors have used the method of Ghose and Crippen to calculate the predicted octanol-water partition coefficient (J. Comp. Chem. 9, 80(1988)). While this is only an estimate of potential skin penetration, the analysis was carried out because it helps in prioritizing likelihood of topical effectiveness, in theory. The seventh criterion was an analysis of toxicity utilizing a fluorescence viability probe (CellTiter-Fluo™ Cell Viability Assay (Promega)). Interpretation of this endpoint is complicated by the fact that it represents a composite of the variation between drug-treated and control divided by the standard error The results shown in Table 1 indicate 34 candidate molecules which satisfied all of the criteria outlined above. […] Most of their potencies ranged slightly below or above 1 uM. While the lipophilicity scores remain imperfect predictors of skin penetration capability. However, numbers of >3 can be more likely to penetrate.

Consider eight compounds from patent US20140296223A1, “METHOD FOR REGULATING SKIN PIGMENTATION” (THE GENERAL HOSPITAL CORPORATION, priority 2011, published 2014).

With `Cc1ccc2nc(-c3ccc(NC(=O)CSc4nnc(C)s4)cc3)sc2c1` [N-[4-(6-methyl-1,3-benzothiazol-2-yl)phenyl]-2-[(5-methyl-1,3,4-thiadiazol-2-yl)thio]acetamide], in series [1], the Z-Score is on record as −9.3543. Also, the “Viability z-score (treated minus control, divided by standard error)” value in the series with Skme15 amounted to 1.032.
Taken in the same sequence, the figures for `COc1ccc(OC)c(S(=O)(=O)N2CCC(C(=O)Nc3ccc(Cl)c(C(F)(F)F)c3)CC2)c1` [N-[4-chloro-3-(trifluoromethyl)phenyl]-1-[(2,5-dimethoxyphenyl)sulfonyl]piperidine-4-carboxamide] were −9.871 and −0.2442.
In the case of `Cc1oc(-c2ccc3c(c2)OCCO3)cc1C(=O)NCC(=O)O` [N-[5-(2,3-dihydro-1,4-benzodioxin-6-yl)-2-methyl-3-furoyl]glycine], the Z-Score in series [1] is on record as −10.0065. Also, the “Viability z-score (treated minus control, divided by standard error)” value in the series with Skme15 is reported as −0.0206.
Taken in the same sequence, the figures for `COc1cccc(C(=O)NC(c2ccc(Cl)cc2)c2c(O)ccc3ccccc23)c1` (stereo not shown) [N-[(4-chlorophenyl)(2-hydroxy-1-naphthyl)methyl]-3-methoxybenzamide] were −11.9861 and −0.1221.
Taken in the same sequence, the figures for `O=C(CCSc1nc(-c2ccccc2)cs1)Nc1ccccc1` [N-phenyl-3-[(4-phenyl-1,3-thiazol-2-yl)thio]propanamide] were −10.8255 and −0.2442.
Compound `O=C(O)COc1cccc(-c2nc3ccccc3s2)c1` [[3-(1,3-benzothiazol-2-yl)phenoxy]acetic acid] yielded a Z-Score in series [1] of −11.9101. In addition, the “Viability z-score (treated minus control, divided by standard error)” value in the series on Skme15 is listed as −0.0206.
Taken in the same sequence, the figures for `N#CC(C#N)=C(Nc1ccccc1Cl)SCc1cccc(F)c1` [{[(2-chlorophenyl)amino][(3-fluorobenzyl)thio]methylene}malononitrile] were −10.3064 and −1.5092.
Regarding `N#CC(C#N)=C(Nc1ccc(Br)cc1)SCc1ccc(F)cc1` [{[(4-bromophenyl)amino][(4-fluorobenzyl)thio]methylene}malononitrile], the Z-Score in series [1] is −9.463. The “Viability z-score (treated minus control, divided by standard error)” value in the series with Skme15 is recorded as −1.5092.
